Patent publication US11466008B2, “Co-crystals of neflamapimod (VX-745)” (EIP Pharma, LLC, priority 2017, dated 2022)
In brackets after ≈: the same amount, converted by molar mass.

What was measured:
[1] = Dissolution study in FaSSIF at ambient temperature (HPLC; XRPD of remaining solids); conditions: for Concentration: FaSSIF, 3 hrs; for Concentration / ending solubility / peak solubility: ambient temperature; for ending solubility / peak solubility: medium: FaSSIF
Description: (§1) The first dissolution medium tested was fasted state simulated intestinal fluid (FaSSIF) at ambient temperature. […] The second dissolution medium tested was fed state simulated intestinal fluid (FeSSIF) at ambient temperature.
(§2) Upon the completion of each experiment, the remaining solid was recovered and analyzed by XRPD.
(§3) High-Performance Liquid Chromatography (HPLC) Analyses.

[2] = Dissolution study in FeSSIF at ambient temperature (HPLC; XRPD of remaining solids); conditions: for Concentration: FeSSIF; for Concentration / ending solubility / peak solubility: ambient temperature; for ending solubility / peak solubility: medium: FeSSIF
Description: as §1, §2, §3

[3] = Dissolution study in water at ambient temperature (HPLC); type: physicochemical
Description: HPLC analyses were carried out on an Agilent 1100 series instrument equipped with a UV detector using the following materials and operating parameters:
Dissolution studies were carried out for VX-745 at ambient temperature using water, as described by the HPLC Analysis protocol described above.
Dissolution studies were carried out for the CC-6 at ambient temperature using water, as described by the HPLC Analysis protocol described above.
Dissolution studies were carried out for the CC-11 at ambient temperature using water, as described by the HPLC Analysis protocol described above.

[4] = Estimated solubility of VX-745 in solvents (solvent aliquot addition, visual inspection); type: physicochemical; conditions: thermodynamic from solid
Description: Solubilities of VX-745 in several solvents were estimated. The experiments were carried out by adding test solvents in aliquots to weighed portions of solid. Whether dissolution had occurred was judged by visual inspection after addition of each solvent aliquot. Solubility numbers were calculated by dividing the total amount of solvent used to dissolve the sample by the weight of the sample. The actual solubilities may be greater than the numbers calculated because of the use of solvent aliquots that were too large or because of slow dissolution rates. […] The solubility number is expressed as “greater than or equal to” if dissolution occurred on addition of the first solvent aliquot.

[5] = FaSSIF (fasted state simulated intestinal fluid), fassif, thermodynamic from solid
[6] = FeSSIF (fed state simulated intestinal fluid), fessif, thermodynamic from solid

O=c1ncn2nc(Sc3ccc(F)cc3F)ccc2c1-c1c(Cl)cccc1Cl.[Cl][Zn][Cl] [CC-18]
Concentration [1]: 23.63 µg/mL
ending solubility [1]: 0.02257 mg/mL
peak solubility [1]: 0.03449 mg/mL
Concentration ([2]; 2 mins (Table 17)): 88.50 µg/mL
Concentration ([2]; 5 mins (Table 17)): 68.53 µg/mL
Concentration ([2]; 10 mins (Table 17)): 56.84 µg/mL
Concentration ([2]; 15 mins (Table 17)): 59.40 µg/mL
Concentration ([2]; 25 mins (Table 17)): 47.55 µg/mL
Concentration ([2]; 40 mins (Table 17)): 50.99 µg/mL
Concentration ([2]; 1 hr (Table 17)): 47.83 µg/mL
Concentration ([2]; 2 hrs (Table 17)): 50.17 µg/mL
Concentration ([2]; 3 hrs (Table 17)): 47.34 µg/mL
Concentration ([2]; 4 hrs (Table 17)): 49.24 µg/mL
Concentration ([2]; 24 hrs (Table 17)): 34.18 µg/mL
ending solubility [2]: 0.03418 mg/mL
peak solubility [2]: 0.0885 mg/mL

O=c1ncn2nc(Sc3ccc(F)cc3F)ccc2c1-c1c(Cl)cccc1Cl.Oc1ccccc1 [CC-11]
Solubility ([3]; 2 mins): 0.01019 mg/mL
Solubility ([3]; 5 mins): 0.0575 mg/mL
Solubility ([3]; 10 mins): 0.04326 mg/mL
Solubility ([3]; 15 mins): 0.03628 mg/mL
Solubility ([3]; 25 mins): 0.03533 mg/mL
Solubility ([3]; 40 mins): 0.02133 mg/mL
Solubility ([3]; 1 hr): 0.01509 mg/mL
Solubility ([3]; 2 hrs): 0.01711 mg/mL
Solubility ([3]; 3 hrs): 0.0123 mg/mL
Solubility ([3]; 4 hrs): 0.01398 mg/mL

O=C(O)CCCC(=O)O.O=c1ncn2nc(Sc3ccc(F)cc3F)ccc2c1-c1c(Cl)cccc1Cl [CC-6]
ending solubility [1]: 0.00159 mg/mL
peak solubility [1]: 0.00375 mg/mL
Solubility ([3]; 2 mins): 0.02378 mg/mL
Solubility ([3]; 5 mins): 0.03917 mg/mL
Solubility ([3]; 10 mins): 0.05139 mg/mL
Solubility ([3]; 15 mins): 0.06749 mg/mL
Solubility ([3]; 25 mins): 0.06893 mg/mL
Solubility ([3]; 40 mins): 0.06528 mg/mL
Solubility ([3]; 1 hr): 0.05985 mg/mL
Solubility ([3]; 2 hrs): 0.05411 mg/mL
Solubility ([3]; 3 hrs): 0.05075 mg/mL
Solubility ([3]; 4 hrs): 0.05707 mg/mL
Concentration ([2]; 3 mins): 1.28 µg/mL
ending solubility [2]: 0.00238 mg/mL
peak solubility [2]: 0.00187 mg/mL

O=c1ncn2nc(Sc3ccc(F)cc3F)ccc2c1-c1c(Cl)cccc1Cl [VX-745, 5-(2,6-dichlorophenyl)-2-(2,4-difluorophenylthio)-6H-pyrimido[1,6-b]pyridazin-6-one]
solubility at 5 min [1, 5]: 0.0178 mg/mL (≈ 40.8 µM)
solubility at 24 h [1, 5]: 0.00907 mg/mL (≈ 20.8 µM)
Concentration [1]: 5.81 µg/mL
solubility at 2 min ([3]; thermodynamic from solid, 2 mins): 0.0113 mg/mL (≈ 25.9 µM)
solubility at 5 min ([3]; thermodynamic from solid, 5 mins): 0.0157 mg/mL (≈ 35.9 µM)
solubility at 10 min ([3]; thermodynamic from solid, 10 mins): 0.0149 mg/mL (≈ 34.2 µM)
solubility at 15 min ([3]; thermodynamic from solid, 15 mins): 0.0178 mg/mL (≈ 40.8 µM)
solubility at 25 min ([3]; thermodynamic from solid, 25 mins): 0.0155 mg/mL (≈ 35.6 µM)
solubility at 40 min ([3]; thermodynamic from solid, 40 mins): 0.0107 mg/mL (≈ 24.5 µM)
solubility at 1 h ([3]; thermodynamic from solid, 1 hr): 0.00659 mg/mL (≈ 15.1 µM)
solubility at 2 h ([3]; thermodynamic from solid, 2 hrs): 0.00567 mg/mL (≈ 13 µM)
solubility at 3 h ([3]; thermodynamic from solid, 3 hrs): 0.00632 mg/mL (≈ 14.5 µM)
solubility at 4 h ([3]; thermodynamic from solid, 4 hrs): 0.0113 mg/mL (≈ 25.9 µM)
Solubility ([4]; organic solvent or mixture, solvent acetone): 7 mg/mL (≈ 16000 µM)
Solubility ([4]; organic solvent or mixture, solvent acetonitrile): 9 mg/mL (≈ 20600 µM)
Solubility ([4]; organic solvent or mixture, solvent ethanol): 2 mg/mL (≈ 4580 µM)
Solubility ([4]; organic solvent or mixture, solvent ethyl acetate): < 1 mg/mL
Solubility ([4]; organic solvent or mixture, solvent isopropyl alcohol): 1 mg/mL (≈ 2290 µM)
Solubility ([4]; organic solvent or mixture, solvent methanol): 10 mg/mL (≈ 22900 µM)
Solubility ([4]; organic solvent or mixture, solvent tetrahydrofuran (THF)): 4 mg/mL (≈ 9170 µM)
Solubility ([4]; solvent water): < 1 mg/mL
solubility at 3 h [2, 6]: 0.0214 mg/mL (≈ 48.9 µM)
solubility at 24 h [2, 6]: 0.014 mg/mL (≈ 32.1 µM)
Concentration ([2]; 3 hrs): 21.35 µg/mL
